Data from patent publication US10316017B2, “COT modulators and methods of use thereof” (Gilead Sciences, Inc., priority 2015, dated 2019).

Key:
[1] = target: T1, human Cot catalytic domain (30-397 amino acids) (Homo sapiens, UniProt P41279); test: High Throughput Cot Biochemical Assay (KinEASE TR-FRET); settings: Cot KinEASE TR-FRET, 400 μM ATP; read-out: IC50 HTRF
T1 construct: Purified recombinant human Cot catalytic domain (30-397 amino acids) was purchased from Cama Biosciences; purchased Cama Biosciences (so in the source)
Outline: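 Reaction of 5 nM recombinant human Cot catalytic domain (aa 30-397) with 1 μM STK3 peptide (XL665-labeled) and 400 μM ATP in 10 mM MOPS pH 7.0, 10 mM MgOAc, 1 mM DTT, 0.5 mg/mL BSA, 0.1% DMSO. Phosphopeptide detected by TR-FRET with europium anti-phospho antibody.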

[2] = test system: TNFα production in LPS-stimulated human monocytes; test: Cot Monocyte TNFα Cell Based Assay; settings: Homo sapiens, Monocyte, LPS-stimulated human monocytes, TNFα TR-FRET; read-out: EC50 TNF
Outline: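 Cells at 5,000/well were pretreated with compound for 1 h at 37 °C (0.5% DMSO final), then stimulated with 50 pg/ml LPS for 4 h at 37 °C. Supernatant TNFα was measured by two-antibody TR-FRET after overnight room-temperature incubation; values are percent of control between unstimulated and stimulated wells.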

T1 sequence (P41279 30-397): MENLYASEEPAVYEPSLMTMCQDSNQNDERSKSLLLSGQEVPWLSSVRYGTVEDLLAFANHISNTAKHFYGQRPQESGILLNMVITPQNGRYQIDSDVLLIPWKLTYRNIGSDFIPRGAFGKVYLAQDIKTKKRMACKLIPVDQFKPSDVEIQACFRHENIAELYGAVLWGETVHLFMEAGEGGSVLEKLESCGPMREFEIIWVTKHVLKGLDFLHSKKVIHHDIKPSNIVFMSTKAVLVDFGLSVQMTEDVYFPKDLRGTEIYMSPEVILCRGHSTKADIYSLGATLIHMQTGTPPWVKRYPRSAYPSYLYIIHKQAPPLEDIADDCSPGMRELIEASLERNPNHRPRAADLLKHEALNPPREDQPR

SMILES | IC50 [1] [nM] | EC50 [2] [nM]
CC(C)(C)CNc1c(C#N)cnc2c(F)cc(N[C@H](c3cn(C4CC4)nn3)c3ccccc3Cl)cc12 [Example 1015, (S)-6-(((2-chlorophenyl)(1-cyclopropyl-1H-1,2,3-triazol-4-yl)methyl)amino)-8-fluoro-4-(neopentylamino)quinoline-3-carbonitrile] | 14 | 462
[2H][C@](Nc1cc(Cl)c2ncc(C#N)c(NCC(C)(C)c3ccccn3)c2c1)(c1ccc(F)cc1)c1cn(C2CC2)nn1 [Example 1016, (S)-8-chloro-6-(((1-cyclopropyl-1H-1,2,3-triazol-4-yl)(4-fluorophenyl)methyl-d)amino)-4-((2-methyl-2-(pyridin-2-yl)propyl)amino)quinoline-3-carbonitrile] | 28 | ≥ 1000
CC(C)(C)CNc1c(C#N)cnc2c(F)cc(N[C@H](c3cn(C4(C(F)(F)F)CC4)nn3)c3ccccc3Cl)cc12 [Example 1017, (S)-6-(((2-chlorophenyl)(1-(1-(trifluoromethyl)cyclopropyl)-1H-1,2,3-triazol-4-yl)methyl)amino)-8-fluoro-4-(neopentylamino)quinoline-3-carbonitrile] | 85 | ≥ 1000
[2H][C@](Nc1cc(C#N)c2ncc(C#N)c(NC3CCCC3(C)C)c2c1)(c1ccc(F)cc1)c1cn(C2(C(F)(F)F)CC2)nn1 (stereo partly drawn) [Example 1018, 4-((2,2-dimethylcyclopentyl)amino)-6-(((S)-(4-fluorophenyl)(1-(1-(trifluoromethyl)cyclopropyl)-1H-1,2,3-triazol-4-yl)methyl-d)amino)quinoline-3,8-dicarbonitrile] | 22 | 326
CC(C)(C)CNc1c(C#N)cnc2c(C#N)cc(N[C@H](c3cn(C4(C(N)=O)CCCC4)nn3)c3ccccc3Cl)cc12 [Example 1020, (S)-1-(4-((2-chlorophenyl) ((3,8-dicyano-4-(neopentylamino)quinolin-6-yl)amino)methyl)-1H-1,2,3-triazol-1-yl)cyclopentane-1-carboxamide] | 6 | 161
CC(C)(C)CNc1c(C#N)cnc2c(C#N)cc(N[C@H](c3cn(C4(C(N)=O)CCOC4)nn3)c3ccccc3Cl)cc12 (stereo partly drawn) [Example 1022, 3-(4-((S)-(2-chlorophenyl) ((3,8-dicyano-4-(neopentylamino)quinolin-6-yl)amino)methyl)-1H-1,2,3-triazol-1-yl)tetrahydrofuran-3-carboxamide] | 7 | 503
CC(C)(C)CNc1c(C#N)cnc2c(C#N)cc(N[C@H](c3cn(C4(C(N)=O)CCOCC4)nn3)c3ccccc3Cl)cc12 [Example 1023, (S)-4-(4-((2-chlorophenyl) ((3,8-dicyano-4-(neopentylamino)quinolin-6-yl)amino)methyl)-1H-1,2,3-triazol-1-yl)tetrahydro-2H-pyran-4-carboxamide] | 21 | ≥ 1000
CC(C)(C)CNc1c(C#N)cnc2c(C#N)cc(N[C@H](c3cn(C4(C#N)CC4)nn3)c3ccccc3C(F)F)cc12 [Example 1025, (S)-6-(((1-(1-cyanocyclopropyl)-1H-1,2,3-triazol-4-yl)(2-(difluoromethyl)phenyl)methyl)amino)-4-(neopentylamino)quinoline-3,8-dicarbonitrile] | 10 | 131
CC(C)(C)CNc1c(C#N)cnc2c(C#N)cc(N[C@H](c3cn(C4(C#N)CC4)nn3)c3ccccc3CO)cc12 [Example 1026, (S)-6-(((1-(1-cyanocyclopropyl)-1H-1,2,3-triazol-4-yl)(2-(hydroxymethyl)phenyl)methyl)amino)-4-(neopentylamino)quinoline-3,8-dicarbonitrile] | 7 | 371
[2H][C@](Nc1cc(Cl)c2ncc(C#N)c(N[C@H](CC)c3ccccc3)c2c1)(c1ccc(F)cc1)c1cn(C2(C(F)F)CC2)nn1 [Example 1028, 8-chloro-6-(((S)-(1-(1-(difluoromethyl)cyclopropyl)-1H-1,2,3-triazol-4-yl)(4-fluorophenyl)methyl-d)amino)-4-(((R)-1-phenylpropyl)amino)quinoline-3-carbonitrile] | 17 | 259
[2H][C@@](Nc1cc(C#N)c2ncc(C#N)c(NCC(C)(C)C)c2c1)(c1cn(C(C)(C)C)nn1)c1ccccc1Cl [Example 1029, (S)-6-(((1-(tert-butyl)-1H-1,2,3-triazol-4-yl)(2-chlorophenyl)methyl-d)amino)-4-(neopentylamino)quinoline-3,8-dicarbonitrile] | 14 | 225
CC(C)(CO)CNc1c(C#N)cnc2c(C#N)cc(N[C@H](c3cn(C4(C)CC4)nn3)c3ccccc3Cl)cc12 [Example 1035, (S)-6-(((2-chlorophenyl)(1-(1-methylcyclopropyl)-1H-1,2,3-triazol-4-yl)methyl)amino)-4-((3-hydroxy-2,2-dimethylpropyl)amino)quinoline-3,8-dicarbonitrile] | 19 | 316
CC(C)(C)CNc1c(C#N)cnc2c(C#N)cc(N[C@H](c3cn(C4(CF)CC4)nn3)c3ccccc3Cl)cc12 [Example 1036, (S)-6-(((2-chlorophenyl)(1-(1-(fluoromethyl)cyclopropyl)-1H-1,2,3-triazol-4-yl)methyl)amino)-4-(neopentylamino)quinoline-3,8-dicarbonitrile] | 9 | 195
CC(C)(C)CNc1c(C#N)cnc2c(-c3cncnc3)cc(N[C@H](c3cn(C4(C)CC4)nn3)c3ccccc3Cl)cc12 [Example 1037, (S)-6-(((2-chlorophenyl)(1-(1-methylcyclopropyl)-1H-1,2,3-triazol-4-yl)methyl)amino)-4-(neopentylamino)-8-(pyrimidin-5-yl)quinoline-3-carbonitrile] | 102 | ≥ 1000
Cc1c([C@H](Nc2cc(Cl)c3ncc(C#N)c(NCC(C)(C)C)c3c2)c2cn(C3(C(F)(F)F)CC3)nn2)cccc1-n1cccn1 [Example 1038, (S)-8-chloro-6-(((2-methyl-3-(1H-pyrazol-1-yl)phenyl)(1-(1-(trifluoromethyl)cyclopropyl)-1H-1,2,3-triazo1-4-yl)methyl)amino)-4-(neopentylamino)quinoline-3-carbonitrile] | 10 | 566

These reach a lower IC50 [1]. Values come first.

IC50 [1] [nM] | EC50 [2] [nM] | SMILES
4 | 234 | CC(C)(C)CNc1c(C#N)cnc2c(C#N)cc(N[C@H](c3cn(C(C)(C)C(N)=O)nn3)c3ccccc3Cl)cc12 [Example 1021, (S)-2-(4-((2-chlorophenyl) ((3,8-dicyano-4-(neopentylamino)quinolin-6-yl)amino)methyl)-1H-1,2,3-triazol-1-yl)-2-methylpropanamide]
5 | 54 | Cc1ccccc1[C@H](Nc1cc(C#N)c2ncc(C#N)c(NCC(C)(C)C)c2c1)c1cn(C2(C#N)CC2)nn1 [Example 1024, (S)-6-(((1-(1-cyanocyclopropyl)-1H-1,2,3-triazol-4-yl)(o-tolyl)methyl)amino)-4-(neopentylamino)quinoline-3,8-dicarbonitrile]
4 | 141 | CC(C)(C)CNc1c(C#N)cnc2c(C#N)cc(N[C@H](c3cn(C4(C#N)CC4)nn3)c3cccc(C#N)c3Cl)cc12 [Example 1027, (S)-6-(((2-chloro-3-cyanophenyl)(1-(1-cyanocyclopropyl)-1H-1,2,3-triazol-4-yl)methyl)amino)-4-(neopentylamino)quinoline-3,8-dicarbonitrile]
5 | 82 | [2H][C@](Nc1cc(C#N)c2ncc(C#N)c(NCC(C)(C)C)c2c1)(c1cn(C2(C#N)CC2)nn1)c1ccccc1Cl [Example 1030, 6-(((2-chlorophenyl)(1-(1-cyanocyclopropyl)-1H-1,2,3-triazol-4-yl)methyl-d)amino)-4-(neopentylamino)quinoline-3,8-dicarbonitrile]
1 | 118 | CC(C)(C)CNc1c(C#N)cnc2c(Cl)cc(N[C@@H](c3cccc(-n4cncn4)c3)c3cn(C4CC4)nn3)cc12 [Example 1031, (S)-6-(((3-(1H-1,2,4-triazol-1-yl)phenyl)(1-cyclopropyl-1H-1,2,3-triazol-4-yl)methyl)amino)-8-chloro-4-(neopentylamino)quinoline-3-carbonitrile]
1 | 161 | CC(C)(C)CNc1c(C#N)cnc2c(Cl)cc(N[C@@H](c3cccc(-n4ccnc4)c3)c3cn(C4CC4)nn3)cc12 [Example 1032, (S)-6-(((3-(1H-imidazol-1-yl)phenyl)(1-cyclopropyl-1H-1,2,3-triazol-4-yl)methyl)amino)-8-chloro-4-(neopentylamino)quinoline-3-carbonitrile]
2 | 456 | CC(C)(C)CNc1c(C#N)cnc2c(Cl)cc(N[C@@H](c3cccc(-n4cccn4)c3)c3cn(C4CC4)nn3)cc12 [Example 1033, (S)-6-(((3-(1H-pyrazol-1-yl)phenyl)(1-cyclopropyl-1H-1,2,3-triazol-4-yl)methyl)amino)-8-chloro-4-(neopentylamino)quinoline-3-carbonitrile]
4 | 93 | [2H][C@](Nc1cc(C#N)c2ncc(C#N)c(NC3CCCC3(C)C)c2c1)(c1ccc(F)cc1)c1cn(C2CC2)nn1 (stereo partly drawn) [Example 1034, 6-(((S)-(1-cyclopropyl-1H-1,2,3-triazol-4-yl)(4-fluorophenyl)methyl-d)amino)-4-((2,2-dimethylcyclopentyl)amino) quinoline-3,8-dicarbonitrile]
